# Experimental data as given in patent US6872712B1, “Cyclic glycerophosphates and analogs thereof” (Yeda Research and Development Co. Ltd., priority 1999, dated 2005).
# Tests used:
# [1] = test system: tyrosine phosphorylated proteins in CHO cells; assay: Tyrosine phosphorylation in CHO cells (Western blot with anti-phosphotyrosine antibodies); type: cell-based, Chinese hamster; conditions: CHO cells, 1, 3, 5 or 10 mins at 37° C., 1 μM or 2 μM, monoclonal antibodies (FIG. 2)
# Protocol: Chinese hamster ovary (CHO) cells (Puck, 1985; Gottesman, 1987) and NIH-3T3 cells (NIH), were used in the following experiments. CHO cells were grown at 37° C. in a humidified 5% CO2 atmosphere in 60×15 mm Petri dishes (Falcon) containing F12 medium supplemented with 10% fetal calf serum (FCS) and 2 mM glutamine. When reaching near confluence, the cells were placed under overnight starvation by replacing the medium to F12+2 mM glutamine with 0.1% FCS. The stimulation experiments were performed with cells which were under starvation for 12-18 hours.
# (§1) The cyclic phosphates 1,3 cGP, 1,3 cPP, 1,2 cGP, 1,2 cPP, P-1,3 cGP and P-1,3 cPP and the controls αGP and βGP were dissolved in HBSS, or methanol to form stocks of 1 mM or 10 mM. They were diluted into the cell culture medium to a final concentration of up to 20 μM. At the assigned stimulation time (0.5-20 min.) the medium was aspirated under vacuum and the cells were washed 3 times with cold (4° C.) phosphate buffered saline (PBS). […] The protein concentration in each sample, as evaluated by the Bradford assay, was in the range of 1-1.5 mg/ml. […] Bound antibodies were detected by horseradish peroxidase-conjugated anti-rabbit antibodies (Transduction Laboratories, Lexington Ky.) after 2 hours incubation at room temperature, using the conventional ECL detection method. […]
# [2] = test system: tyrosine phosphorylated proteins in NIH 3T3 cells; assay: Tyrosine phosphorylation in NIH 3T3 cells (Western blot with anti-phosphotyrosine antibodies); type: cell-based; conditions: 1 min or 5 mins at 37° C., 0.5, 1, 2 or 4 μM, monoclonal antibodies (FIG. 3)
# Protocol: NIH-3T3 cells were grown under similar conditions in 1640 Eagle medium at 10% bovine calf serum plus 2 mM glutamine.
# as §1, with “(PBS). The cells were then freeze-thawed 3 times with liquid nitrogen in 0.5 ml of a lysis buffer of PBS containing 1 mM phenylmethylsulfonyl fluoride, a cocktail of protease inhibitors (aprotinin, leuproptin, pepstatin A, phenanthroline, benzamidine HCl each at a concentration of 10 μg/ml) and a cocktail of phosphatase inhibitors (80 mM β-glycerophosphate, 2 mM EGTA and 50 μM Na3VO4), and then scraped off. The lysate was then vortexed and centrifuged for 2 minutes at 12.000 g.” for “(PBS).”
# [3] = Stability of cyclic phosphates in PBS / aqueous solution (TLC); type: physicochemical; conditions: 10 mg/ml in PBS, 37°, up to 24 hours
# [4] = test system: cell lysate phosphatases; assay: Inhibition of phosphatase activity of cell lysate (PNPP substrate); type: biochemical; conditions: 50 μM, 50 mM PNPP, 90 minutes at 37° C., pH 7.4
# Protocol: Inhibition of phosphatase activity of cell lysate by cyclic phosphates was assayed in 1.0 ml of 50 mM Tris-HCl buffer, pH 7.4, containing 50 mM p-nitrophenyl phosphate, PNPP, as a substrate. Reaction was initiated by the addition of crude cell lysate (100 μg/ml final protein concentration) and terminated after 90 minutes at 37° C. by an addition of 50 μl of 1M NaOH. […] Assays were conducted under the same conditions as above in the presence of 50 μM cyclic phosphate. The enzyme activity in the absence of inhibitor was taken as 100% activity.
# [5] = test system: CHO cells; assay: Uptake of 32P labeled 1,3-cPP by CHO cells; type: cell-based, Chinese hamster; conditions: intact CHO cells, increasing amounts of unlabeled compound
# Protocol: After 2 washings with PBS the cells were disintegrated in 1 M NaOH and radioactivity was scored with a β counter. The insert presents the magnified uptake profile for short incubations (up to 2 minutes) where the intercept (0 time incubation) corresponded to approximately 3×10^6 molecules per cell, while at equilibrium (above 2 hours incubation) incorporation corresponded to approximately 2×10^8 molecules per cell.
# [6] = test system: perforated CHO cells; assay: Intracellular binding in perforated CHO cells (displacement of 1,3-cP32P); design: species or system Chinese hamster; conditions: 20 μM 1,3-cP32P, 5 minutes at 4° C., increasing amounts of competitor (FIG. 9)
# Protocol: Radioactivity was scored after 2 washings with PBS at 4° C. as above. […] In this set of experiments the number of displaceable (i.e. specifically bound) ligands was estimated to be in the range of 10^7-10^8 per cell.
# [7] = test system: insulin receptor; assay: Tyrosine phosphorylation of the insulin receptor in CHO-T cells; type: cell-based; conditions: 20 mins, 0.1 μM 1,3 cPP in combination with 0.1 nM insulin (FIG. 10)
# Protocol: Group 4: 0.1 μM 1,3, cPP only.
# Tyrosine phosphorylation was determined using anti-phosphotyrosine antibody (as described above).
# [8] = test system: T47D human breast cancer cells; assay: Proliferation of T47D human breast cancer cells (3H-thymidine); type: cell-based; conditions: 50 μM 1,3-cPP salt, days 1, 2 and 3 (P 0.0370, 0.0192, 0.0238) (FIG. 12)
# Protocol: In this experiment, 8×10^4 T47D (clone 11) human breast cancer cells were plated in sets of 6 in 96 well microtiter plates and titrated concentrations (1-50 μM final concentrations) of 1,3-cPP salt in complete medium were added to the cultures at the beginning of the experiment only in a total volume of 200 μl per well. Plates were incubated at 37° C. over the course of 5 days, where 1 plate was pulsed with ^3H-thymidine (Sigma) overnight each day and subsequently frozen. All the plates were harvested together (Packard Micromate 196 Harvester, Merriden, Conn.) and scored on a 96 well plate reader (Packard Matrix 96, Merriden, Conn.).
# [9] = test system: K562 leukemia cells; assay: Differentiation of K562 leukemia cells (hemoglobin, benzidine assay); type: cell-based; conditions: 4 days, 10 μM 1,3 cPP in combination with 1.5 mM sodium butyrate (FIG. 13)
# Protocol: K562 leukemia cells are able to differentiate to the erythroid lineage. Such differentiation is characterized by the cells' ability to synthesize hemoglobin. Sodium butyrate is a known differentiation agent of such leukemia cells.
# In this example, the ability of 1,3 cPP, α-GP and sodium butyrate alone and n combination to cause differentiation of K562 cells was evaluated using the known benzidine assay.
# K562 cells were incubated for a period of 4 days with the following: • (a) growth medium (control); • (b) 10 μM of 1,3 cPP; • (c) […] of α-GP; • (d) 1.5 mM of sodium butyrate; • (e) a combination of sodium butyrate and 1,3 cPP; and • (f) sodium butyrate and α-GP.
# [10] = Stability of cyclic phosphates in cell lysates (TLC); conditions: 10 mg/ml in PBS mixed with CHO or NIH-3T3 cell lysate (0.1 mg/ml protein), 37°, up to 24 hours
# Text: This distinct difference allowed the qualitative detection of hydrolysis of the cyclic phosphate.
structure (smiles),measurement,setting,value
"O=P1(O)OCCCO1 [1,3 cPP, 1,3 cyclic propanediol phosphate]",level of tyrosine phosphorylated proteins,[1],phosphorylation was most markedly seen in the band(s) having a molecular weight of about 35 kD and about 45 kD
same,level of tyrosine phosphorylated proteins,[2],augmented tyrosine phosphorylation
same,hydrolysis to the linear form in PBS,[3],No hydrolysis
same,inhibition of cell lysate phosphatase activity,[4],15-20%
same,"effect of unlabeled competitor on the uptake profile of 1,3-cP32P",[5],remained essentially unaltered
same,"displacement of 1,3-cP32P in perforated CHO cells",[6],specific binding
same,phosphorylation of insulin receptor (117 kD and 200 kD bands) relative to insulin only,[7],almost doubled
same,proliferation versus cells in growth medium only,[8],significant inhibition
same,synthesis of hemoglobin relative to sodium butyrate alone,[9],3 fold
same,hydrolysis to the linear form by cell lysate,[10],No hydrolysis
